# Source: PMC10049495, “Antitumor Activity of PEGylated and TEGylated Phenothiazine Derivatives: Structure–Activity Relationship” (International Journal of Molecular Sciences, 2023)
# Several values for one entry are separate records, joined by “and”; a condition that tells them apart may be missing. Equal values may be shown once. Read-outs that look alike come from different tables or passages of the source.
# What was measured:
# [1] = DPPH radical scavenging activity; conditions: for DPPH radical inhibition: 1 mM compound, ethanol, 1 h in the dark
# Excerpt: In this light, the antioxidant activity of the studied phenothiazine derivatives was investigated using DPPH assay, measuring the dependence of the free radical inhibition on the concentration as highlighted by a decreasing of the absorbance of DPPH when the concentration of the compound is increasing. The results, expressed in percentage of inhibition, are represented in Figure 4.
# Ex Vivo Radical Scavenging Activity: In order to evaluate antioxidant activity of the studied compounds, a bleaching method of the 1,1-diphenyl-2-picryl hydrazyl (DPPH) radical was used. Briefly, a stock solution of 2 mM of each compound in ethanol was prepared and then diluted to obtain 10 different concentrations from 1 mM to 0.0019 mM using a 96-well plate. The diluted solutions with different concentrations were mixed with an equal volume of ethanolic DPPH solution (0.05 mg/mL), and the mixtures were incubated in the dark at room temperature […] for 1 h. After incubation, the absorbance was read at 517 nm. Inhibition percentage was calculated using Equation (2), where Ac is the absorbance of the control sample (DPPH) and As is the absorbance of the mixtures. All measurements were made in triplicate. I % = (Ac-As)/Ac × 100 (2)
# [2] = test system: normal human dermal fibroblasts (NHDF); test: Cytotoxicity MTS assay on normal fibroblasts; format: cell-based; conditions: 48 h, tested 0.01-0.3 mM, read-out: Half maximal inhibition concentration (IC50)
# Protocol: (§1) Cell culture: NHDF, HeLa, HOS, HepG2, MCF7, MeWo and CT-26 cells were cultivated in complete Eagle’s Minimal Essential Medium alpha (aMEM) containing a 1% Penicillin–Streptomycin–Amphotericin B mixture and a 10% fetal bovine serum under 5% CO2 humidified atmosphere at 37 °C. LN-229 cells were cultivated in DMEM with a 1% Penicillin–Streptomycin–Amphotericin B mixture and a 5% fetal bovine serum. U-118 cells were cultivated in DMEM with a 1% Penicillin–Streptomycin–Amphotericin B mixture and a 10% fetal bovine serum. StemPro™ Accutase™ Cell Dissociation Reagent was used for passaging MeWo and U-118 cells, and TrypLE Express was used for all other cell lines.
# (§2) The working solutions were prepared by diluting the stock solutions with complete medium so that the final concentration of DMSO in the cell culture was 1%. The working solutions were used for incubation. Control cells were treated only with complete cell culture medium containing 1% DMSO.
# (§3) Cytotoxicity MTS assay: In order to perform the MTS assay, cells were placed in culture-treated 96-well plates at densities of 5 × 10^3 cells/well (NHDF and CT-26), 7 × 10^3 cells/well (MCF7) and 10 × 10^3 cells/well (HOS, HeLa, HepG2, MeWo, LN-229, U-118) in 100 μL of a MEM medium/well and allowed to adhere for 24 h. After 24 h, the culture medium was replaced with the tested compound solutions at various concentrations, and the plates were incubated for another 48 h. Before the final reading, 20 μL CellTiter 96® Aqueous One Solution/well was added, and the plates were incubated for 1–4 h. Finally, the absorbance was recorded with a microplate reader at λ = 490 nm. The relative cell viability was expressed as a percentage of the viability of control, and the half maximal inhibitory concentration (IC50) was determined from the graphical representation of the cell viability vs. concentration. Graphical data were expressed as means ± standard error of the mean (S.E.M.). Statistical analysis was made with two-way ANOVA using Tukey’s multiple comparisons test. The difference was considered significant when p < 0.05. Data analysis was performed with GraphPad Prism software version 7.00 for Windows.
# [3] = test system: glioblastoma (LN229) cells; test: Cytotoxicity MTS assay on LN229; format: cell-based, human; conditions: tested 0.01-0.3 mM, read-out: Half maximal inhibition concentration (IC50)
# Protocol: as §1, §2, §3
# [4] = test system: liver cancer (HepG2) cells; test: Cytotoxicity MTS assay on HepG2; format: cell-based, human; conditions: for IC50: HepG2, 48 h, MTS, tested 0.01-0.3 mM, read-out: Half maximal inhibition concentration (IC50)
# Protocol: as §1, §2, §3
# [5] = test system: glioblastoma cell line (U-118); test: Cytotoxicity MTS assay on U-118; format: cell-based, human; conditions: for IC50: U-118, 48 h, MTS, tested 0.01-0.3 mM, read-out: Half maximal inhibition concentration (IC50)
# Protocol: as §1, §2, §3
# osteosarcoma (HOS) cells = test: Cytotoxicity MTS assay on HOS; format: cell-based, human; conditions: 48 h, tested 0.01-0.3 mM, read-out: Half maximal inhibition concentration (IC50)
# Protocol: as §1, §2, §3
# [6] = test system: cervical carcinoma (HeLa) cells; test: Cytotoxicity MTS assay on HeLa; format: cell-based, human; conditions: for IC50: HeLa, 48 h, MTS, tested 0.01-0.3 mM, read-out: Half maximal inhibition concentration (IC50); for Selectivity index (SI): IC50 NHDF / IC50 HeLa
# Protocol: as §1, §2, §3
# [7] = test system: malignant melanoma (MeWo) cells; test: Cytotoxicity MTS assay on MeWo; format: cell-based, human; conditions: for Selectivity index (SI): IC50 NHDF / IC50 MeWo; for IC50: MeWo, 48 h, MTS, tested 0.01-0.3 mM, read-out: Half maximal inhibition concentration (IC50)
# Protocol: as §1, §2, §3
# [8] = test system: mouse colon carcinoma cell line (CT26); test: Cytotoxicity MTS assay on CT-26; format: cell-based; conditions: for IC50: CT-26, 48 h, MTS, tested 0.01-0.3 mM, read-out: Half maximal inhibition concentration (IC50); for Selectivity index (SI): IC50 NHDF / IC50 CT-26
# Protocol: as §1, §2, §3
# [9] = test system: breast cancer (MCF7) cells; test: Cytotoxicity MTS assay on MCF-7; format: cell-based, human; conditions: for Selectivity index (SI): IC50 NHDF / IC50 MCF7; for IC50: MCF-7, 48 h, MTS, tested 0.01-0.3 mM, read-out: Half maximal inhibition concentration (IC50)
# Protocol: as §1, §2, §3
# HeLa = conditions: cited from earlier work
# MCF-7 = conditions: cited from earlier work
# HepG2 = conditions: cited from earlier work
molecule,measurement,setting,value
4-((((10-(poly(ethylene glycol))-10H-phenothiazin-3-yl)methylene)amino)ethyl)benzenesulfonamide [PPEA],DPPH radical inhibition,[1],47%
same,IC50,[2],108 µM
same,IC50,"[3]; LN229, 48 h",109 µM
same,IC50,[4],40 µM
same,Selectivity index (SI),[4]; IC50 NHDF / IC50 HepG2,2.5
same,IC50,[5],100 µM
same,IC50,osteosarcoma (HOS) cells,> 300 µM
same,IC50,[6],86 µM
same,Selectivity index (SI),[6],1.25
same,Selectivity index (SI),[7],1.66
same,IC50,[7],68 µM
same,IC50,[8],29 µM
same,Selectivity index (SI),[8],3.44
same,Selectivity index (SI),[9],1.11
same,IC50,[9],90 µM
4-((((10-(poly(ethylene glycol))-10H-phenothiazin-3-yl)methylene)amino)methyl) benzenesulfonamide [PPMA],DPPH radical inhibition,[1],44%
same,IC50,[2],150 µM
same,IC50,"[3]; LN229, 48 h",239 µM
same,IC50,[4],54 µM
same,Selectivity index (SI),[4]; IC50 NHDF / IC50 HepG2,3
same,Selectivity index (SI),[5]; IC50 NHDF / IC50 U118MG,1.66
same,IC50,[5],92 µM
same,IC50,osteosarcoma (HOS) cells,> 300 µM
same,IC50,[6],116 µM
same,Selectivity index (SI),[6],1.36
same,Selectivity index (SI),[7],1.5
same,IC50,[7],104 µM
same,IC50,[8],40 µM
same,Selectivity index (SI),[8],3.75
same,Selectivity index (SI),[9],1.66
same,IC50,[9],90 µM
10-(poly(ethylene glycol))-10H-phenothiazine-3-carbaldehyde [PPF],radical scavenging capacity (in words),"[1]; DPPH, 0.0019-1 mM",very low radical scavenging capacity
same,IC50,[2],> 300 µM
same,IC50,"[3]; LN229, 48 h",> 300 µM
same,IC50,[4],100 µM and 106 µM
same,IC50,[5],> 300 µM
same,IC50,osteosarcoma (HOS) cells,> 300 µM
same,IC50,[6],> 300 µM
same,IC50,[7],235 µM
same,IC50,[8],140 µM and 139 µM
same,IC50,[9],270 µM
OC(CNCCc1ccccc1)CN1c2ccccc2Sc2ccccc21 (stereo not drawn) [1-Phenethylamino-3-(10H-phenothiazin-10-yl)-2-propanol],IC50,HeLa,10 µM
"CC(=O)c1cc(C(=O)c2ccc3c(c2)Sc2ccccc2N3)c2c(C)cc(C)cn12 [1-[(10H-Phenothiazin-3-yl)carbonyl]-3-acetyl-6,8-dimethylindolizine]",IC50,MCF-7,> 10 µM
COc1ccn2c(C(C)=O)cc(C(=O)c3ccc4c(c3)Sc3ccccc3N4)c2c1 [1-[(10H-Phenothiazin-3-yl)carbonyl]-3-acetyl-7-methoxyindolizine],IC50,MCF-7,> 10 µM
CC(=O)c1cc(C(=O)c2ccc3c(c2)Sc2ccccc2N3)c2cc(C)ccn12 [1-[(10H-Phenothiazin-3-yl)carbonyl]-3-acetyl-7-methylindolizine],IC50,MCF-7,> 10 µM
"CCN1c2ccc(-c3ccc(OC)cc3)cc2Sc2cc(-c3nnc4ccccn34)ccc21 [3-([1,2,4]Triazolo[4,3-a]pyridin-3-yl)-10-ethyl-7-(4-methoxyphenyl)-10H-phenothiazine]",IC50,MCF-7,57.2 µM
"CCN1c2ccc(-c3ccccc3)cc2Sc2cc(-c3nnc4ccccn34)ccc21 [3-([1,2,4]Triazolo[4,3-a]pyridin-3-yl)-10-ethyl-7-phenyl-10H-phenothiazine]",IC50,MCF-7,10.2 µM
"Clc1ccc(-n2cc(CN3c4ccccc4Sc4ccccc43)nn2)cc1 [10-((1-(4-Chlorophenyl)-1H-1,2,3-triazol-4-yl)methyl)-10Hphenothiazine]",IC50,HepG2,1.3 µM
"COc1ccc(-n2cc(CN3c4ccccc4Sc4ccccc43)nn2)cc1 [10-((1-(4-Methoxyphenyl)-1H-1,2,3-triazol-4-yl)methyl)-10Hphenothiazine]",IC50,HepG2,15 µM
"COc1cc(Cn2cc(CN3c4ccccc4Sc4ccccc43)nn2)cc(OC)c1OC [10-{[1-(3,4,5-Trimethoxybenzyl)-1H-1,2,3-triazol-4-yl]methyl}-10H-phenothiazine]",IC50,MCF-7,0.8 µM
"FC(F)(F)c1ccc2c(c1)N(Cc1cn(-c3ccc(Cl)cc3)nn1)c1ccccc1S2 [10-{[1-(4-Chlorophenyl)-1H-1,2,3-triazol-4-yl]methyl}-2-{trifluoromethyl}-10H-phenothiazine]",IC50,MCF-7,29.6 µM
"c1ccc2c(c1)Nc1ccccc1S2 [PTZ, phenothiazine]",DPPH radical inhibition,[1],67%
same,IC50,[2]; Homo sapiens,175 µM
same,IC50,"[3]; Homo sapiens, LN-229, LN229, 48 h",> 300 µM
same,Selectivity index (SI),[4],2.42
same,IC50,[4]; Homo sapiens,73 µM
same,IC50,[5]; Homo sapiens,> 300 µM
same,IC50,osteosarcoma (HOS) cells; Homo sapiens,> 300 µM
same,IC50,[6]; Homo sapiens,240 µM
same,IC50,[7]; Homo sapiens,> 300 µM
same,IC50,"[8]; Mus musculus, CT26",186 µM
same,IC50,"[9]; Homo sapiens, MCF7",188 µM
CN1CCN(CCCN2c3ccccc3Sc3ccc(C(F)(F)F)cc32)CC1 [Trifluoperazine],IC50,MCF-7,11.3 µM
